Source: US4774248A, “Methods of treating depression and depressive states using 5-phenyl-1,4,5,6-tetrahydropyrimidine derivatives” (priority 1985, dated 1988)
“Also recorded” adds a separate entry of the source.

Experiments:
mice [1] = experiment: Four plate test; type: in vivo; conditions: i.p.
Experimental: (§1) The results of toxicological and neuropsychopharmacological tests which were carried out with the products according to the invention have been summarized below. In these tests, solutions of the said products in distilled water were administered intraperitoneally in a volume of 20 ml/kg to male mice and in a volume of 5 ml/kg to male rats.
(§2) The test is performed on groups of 10 mice 30 minutes after the administration of CRL 41 378.

anesthetized dogs [2] = experiment: Cardiovascular study in anesthetized dogs; type: in vivo
[3] = test system: stereotypies induced by apomorphine; experiment: Interaction with apomorphine in rats; type: in vivo; conditions: i.p., apomorphine 0.5 mg/kg s.c.
Experimental: as §1
CRL 41 378 is administered to groups of 12 rats 0.5 h before the subcutaneous injection of 0.5 mg/kg of apomorphine.

rats = experiment: Overall behavior and reactivities in rats; type: in vivo; conditions: i.p.
Method in brief: (§3)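 Male mice (20 ml/kg) and male rats (5 ml/kg) dosed intraperitoneally with compound in distilled water.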

[4] = test system: hypothermia and ptosis induced by reserpine; experiment: Interaction with reserpine; type: in vivo; conditions: mice, i.p.; reserpine 2.5 mg/kg; hydrochloride
Method in brief: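 Reserpine 2.5 mg/kg i.p. given to male mice in groups of 12; test compound dissolved in distilled water and given i.p. (20 ml/kg) four hours later.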

pregnant rabbits = experiment: Teratogenic effects on pregnant rabbits; type: in vivo
anesthetized dogs [5] = experiment: Cardiovascular study in anesthetized dogs; type: in vivo; remark: listed apart in the source
Experimental: Groups of 2 adult dogs (each weighing 10 to 18 kg), anesthetized with nembutal, receive each test product (i) by intraduodenal administration at successive doses of 0.1 mg/kg, 0.5 mg/kg, 1 mg/kg, 2.5 mg/kg, 5 mg/kb, 10 mg/kg and 20 mg/kg, and then (ii) if appropriate, by intravenous administration at a dose of 10 mg/kg. The effects of 10 μg/kg of isoprenaline and/or 2 μg/kg of norepinephrine after the intraduodenal administration of a cumulative dose of 39.1 mg/kg are also assessed.
The following are measured: the total arterial blood pressure, the diastolic arterial blood pressure, the heart rate, the blood flows through the femoral and cerebral arteries and saphenous veins, the rectal temperature, the skin temperature and the pressure of the gases (essentially O2) dissolved in the arterial blood.

[6] = test system: sleep induced by barbital; experiment: Interaction with barbital; type: in vivo; conditions: mice, i.p.; barbital 220 mg/kg
Experimental: as §1
Half an hour after the administration of CRL 41 378, groups of 10 mice receive an intraperitoneal injection of barbital (220 mg/kg).

[7] = test system: hypothermia, righting behavior and stereotypies induced by apomorphine; experiment: Interaction with apomorphine in mice; type: in vivo
Method in brief: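 Male mice, groups of 6, given test compound intraperitoneally in distilled water (20 ml/kg) 30 min before subcutaneous apomorphine at 1 or 16 mg/kg. Hypothermia, righting behaviour and stereotypies scored.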

male mice = experiment: Acute toxicity, intraperitoneal (LD0, LD30, LD60, LD100); type: in vivo; conditions: intraperitoneal
Experimental: as §1

mice [8] = experiment: Spontaneous motility (actimeter); type: in vivo; conditions: i.p.
Experimental: as §1
0.5 h after they have received CRL 41 378, the mice (6 per dose, 12 control animals) are placed in an actimeter, where their motility is recorded for 30 minutes.

mice [9] = experiment: Overall behavior and reactivities in mice; type: in vivo; conditions: i.p.
Method in brief: as §3

[10] = test system: hypothermia induced by apomorphine; experiment: Interaction with apomorphine by gastric administration; type: in vivo; conditions: Mus musculus, male mice, apomorphine 16 mg/kg s.c., read-out: dose as from which the hypothermia induced by apomorphine is opposed
Experimental: Each test product is administered gastrically to male mice, in a volume of 20 ml/kg, 0.50 h before the subcutaneous injection of 16 mg/kg of apomorphine.

mice [11] = experiment: Traction; type: in vivo; conditions: i.p.
Experimental: as §1, §2

[12] = test system: depressions and depressive states; experiment: Clinical trials in depression and depressive states; type: in vivo, human; conditions: daily oral administration to adults
Experimental: The clinical trials which have been undertaken have made it possible to determine that the daily dose to be administered orally to adults, in the treatment of depressions and depressive states, is generally between 3 and 120 mg for the products of the formulae Ia and Ib according to the invention.

mice [13] = experiment: Asphyxiant anoxia caused by gallamine triiodoethylate; type: in vivo; conditions: i.p., gallamine triiodoethylate 32 mg/kg
Experimental: as §1
Groups of 10 mice receive CRL 41 378 30 minutes before the intraperitoneal administration of 32 mg/kg of gallamine triiodoethylate (reference curarizing agent).

mice [14] = experiment: Intergroup aggressiveness; type: in vivo; conditions: mice, i.p.
Method in brief: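 Male mice housed 3 weeks per group in cage halves split by an opaque partition; groups of 3 given CRL 41 378 i.p. in distilled water.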

[15] = test system: central nervous system (CNS); experiment: Neuropsychopharmacological profile (conclusions of the tests); type: in vivo, mice and rats; conditions: i.p.
Experimental: as §1

mice [16] = experiment: Motility reduced by habituation to the enclosure; type: in vivo; conditions: i.p.
Experimental: as §1
After they have stayed in the actimeters for 18 hours, the mice (6 per dose, 12 control animals) receive CRL 41 378. They are immediately returned to their respective enclosures and, half an hour later, their motility is recorded for 30 minutes.

mice [17] = experiment: Electric shock; type: in vivo; conditions: i.p.
Experimental: as §1, §2

For `Cl.OC1(c2ccccc2)CN=CNC1` (stereo not drawn) [CRL 41 382, 5-hydroxy-5-phenyl-1,4,5,6-tetrahydropyrimidine hydrochloride], the “number of punished passes” value (mice [1]) was “practically no modification of the number of punished passes”, the “blood flows through the femoral and vertebral arteries” value (anesthetized dogs [2]; intraduodenal) was “decreases the blood flows through the femoral and vertebral arteries” and the “blood flows through the femoral and vertebral arteries” value (anesthetized dogs [2]; intravenous) was “decreases the blood flows through the femoral and vertebral arteries”. For the same compound, the “action on stereotypies induced by apomorphine” value [3] was “practically no modification of the stereotypies induced by apomorphine”, the “overall behavior and reactivities” value (rats; 0.5 mg/kg, 2 mg/kg and 8 mg/kg) was “behavior, reactivities and variations in the pupil diameter and rectal temperature which are analogous to those of the control group” and the “overall behavior and reactivities” value (rats; 32 mg/kg) was “moderate mydriasis for 1 h”. For the same compound, the “action on hypothermia induced by reserpine” value [4] was “At doses of 4 mg/kg and 16 mg/kg, CRL 41 382 opposes the hypothermia induced by reserpine; also recorded: At the highest dose used (64 mg/kg), CRL 41 382 has no effect on the hypothermia induced by reserpine; also recorded: antagonism of the hypothermia induced by reserpine no longer appears at the high dose of CRL 41 382 used”, the “action on ptosis induced by reserpine” value [4] was “practically no modification of the ptosis induced by reserpine; also recorded: absence of antagonism of the ptosis induced by reserpine” and the teratogenic effects (pregnant rabbits) was “devoid of harmful teratogenic effects on pregnant rabbits”. The rectal temperature (anesthetized dogs [5]) was “increases the rectal temperature”, the skin temperature (anesthetized dogs [5]) was “decreases the blood flows through the femoral and vertebral arteries and also the skin temperature” and the α-adrenergic stimulant effect (anesthetized dogs [5]) was “seems to have an α-adrenergic stimulant effect”. The arterial blood pressure (anesthetized dogs [5]; intraduodenal) was “hypertensive”, the heart rate (anesthetized dogs [5]; intraduodenal) was “practically no effect on the heart rate” and the arterial blood pressure (anesthetized dogs [5]; intravenous) was “hypotensive”. For the same compound, the heart rate (anesthetized dogs [5]; intravenous) was “bradycardic”, the effects of isoprenaline (anesthetized dogs [5]; isoprenaline 10 μg/kg) was “does not modify the effects of isoprenaline” and the “hypertension induced by norepinephrine” value (anesthetized dogs [5]; norepinephrine 2 μg/kg) was “increases the hypertension caused by norepinephrine”. For the same compound, the “duration of the sleep induced by barbital” value [6] was “practically no modification of the duration of the sleep induced by barbital”, the minimal effective dose ([7]; Mus musculus, ip, read-out: dose as from which the hypothermia induced by apomorphine is antagonized) was at least 1 mg/kg and the “action on righting behavior and stereotypies due to apomorphine” value ([7]; i.p.) was “practically no modification of the righting behavior and stereotypies”. The “action on hypothermia induced by apomorphine” value ([7]; i.p., hydrochloride) was “as from a dose of 1 mg/kg and especially at doses of 16 to 64 mg/kg, CRL 41 382 opposes the hypothermia induced by apomorphine; also recorded: antagonism of the hypothermia induced by apomorphine, oxotremorine and reserpine in mice”, the “LD0 (maximum non-lethal dose)” value (male mice) was “greater than 256 mg/kg” and the LD60 (male mice) was about 500 mg/kg. The spontaneous motor activity (mice [8]) was “does not modify the spontaneous motor activity of mice”, the “overall behavior and reactivities” value (mice [9]; 1 mg/kg, 4 mg/kg and 16 mg/kg) was “no distinct modification of the behavior and reactivities compared with the control animals” and the “overall behavior and reactivities” value (mice [9]; 64 mg/kg, hydrochloride) was “sedation for 1 h; also recorded: a decrease in the reactivity to touch and the fear reaction for 0.5 h”. For the same compound, the minimal effective dose [10] was at least 2 mg/kg, the “motor incoordination / incapacity” value (mice [11]) was “does not cause major motor incapacity” and the “results in human therapy (depression)” value [12] was “excellent results”. For the same compound, the “time taken for convulsions and death / lethal effects of gallamine triiodoethylate” value (mice [13]) was “practically no modification of the time taken for convulsions and death to occur”, the “intergroup aggressiveness (number of fights)” value (mice [14]) was “practically no modification of the number of fights” and the antidepressant effects [15] was “antidepressant effects appearing as from the lowest doses used”. For the same compound, the peripheral anticholinergic activity [15] was “absence of peripheral anticholinergic activity”, the sedative effects [15] was “sedative effects appearing transiently at the highest doses used (with no detectable decrease in the motor activity)” and the stimulant effects ([15]; hydrochloride) was “absence of any motor stimulation; also recorded: absence of stimulant effects”. The “resumption in the motor activity of mice accustomed to their enclosure” value (mice [16]) was “does not cause a resumption in the motor activity of mice accustomed to their enclosure”, the “lethal effects of electric shock” value (mice [17]) was “aggravates (at a dose of 64 mg/kg) the lethal effects of electric shock” and the “convulsant effects of electric shock” value (mice [17]; hydrochloride) was “does not oppose the convulsant effects; also recorded: absence of any anticonvulsant action”.
